Non-standard residues stand in square brackets, D forms with d. Residues, ends and D or L forms follow the SMILES beside them. 2Nal = N[C@@H](Cc1ccc2ccccc2c1)C(=O)O

Data on 20 compounds can be found in ChEMBL document CHEMBL1141655, “Structure-activity relationships of Bak derived peptides: affinity and specificity modulations by amino acid replacement” (Eur J Med Chem, 2008).

A short description of assay [1]: Selectivity ratio of EC50 for recombinant Bcl-2 to EC50 for recombinant Bcl-XL.
Assay [2] deals with Bcl-2-like protein 1 (Homo sapiens, UniProt Q07817). The experiment in a line: Binding affinity to recombinant Bcl-XL expressed in Escherichia coli BL21 by fluorescence polarization assay. A general note: Polarisation of emitted light reports the rotation of a fluorescent probe.
Sequence of Bcl-2-like protein 1 (Q07817 whole entry): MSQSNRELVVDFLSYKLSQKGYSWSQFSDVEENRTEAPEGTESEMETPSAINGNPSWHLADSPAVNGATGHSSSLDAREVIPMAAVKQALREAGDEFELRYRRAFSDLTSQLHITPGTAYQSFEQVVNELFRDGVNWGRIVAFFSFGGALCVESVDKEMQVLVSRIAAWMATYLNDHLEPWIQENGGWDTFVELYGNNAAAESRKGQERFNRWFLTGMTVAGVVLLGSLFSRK

As to `CC[C@H](C)[C@H](NC(=O)[C@H](C)NC(=O)[C@H](CC(C)C)NC(=O)[C@H](CCC(N)=O)NC(=O)[C@H](CCCNC(=N)N)NC(=O)CNC(=O)[C@@H](NC(=O)[C@H](CCC(N)=O)NC(=O)CN)C(C)C)C(=O)N[C@@H](Cc1ccc(-c2ccccc2)cc1)C(=O)NCC(=O)N[C@@H](CC(=O)O)C(=O)N[C@@H](CC(=O)O)C(=O)N[C@H](C(=O)N[C@@H](CC(N)=O)C(=O)N[C@@H](CCCNC(=N)N)C(=O)O)[C@@H](C)CC`, the Ratio EC50 in assay [1] turned out to be 17.

On to `CC[C@H](C)[C@H](NC(=O)[C@H](C)NC(=O)[C@H](CCSC)NC(=O)[C@H](CCC(N)=O)NC(=O)[C@H](CCCNC(=N)N)NC(=O)CNC(=O)[C@@H](NC(=O)[C@H](CCC(N)=O)NC(=O)CN)C(C)C)C(=O)N[C@H](C(=O)NCC(=O)N[C@@H](CC(=O)O)C(=O)N[C@@H](CC(=O)O)C(=O)N[C@H](C(=O)N[C@@H](CC(N)=O)C(=O)N[C@@H](CCCNC(=N)N)C(=O)O)[C@@H](C)CC)[C@@H](C)CC`, for which the Ratio EC50 in assay [1] came to 21.

For `CCCC[C@H](NC(=O)[C@H](CCC(N)=O)NC(=O)CN)C(=O)NCC(=O)N[C@@H](CCCNC(=N)N)C(=O)N[C@@H](CCC(N)=O)C(=O)N[C@@H](CC(C)C)C(=O)N[C@@H](C)C(=O)N[C@H](C(=O)N[C@H](C(=O)NCC(=O)N[C@@H](CC(=O)O)C(=O)N[C@@H](CC(=O)O)C(=O)N[C@H](C(=O)N[C@@H](CC(N)=O)C(=O)N[C@@H](CCCNC(=N)N)C(=O)O)[C@@H](C)CC)[C@@H](C)CC)[C@@H](C)CC`, the Ratio EC50 in assay [1] was 11.

As a reminder, the EC50 is the concentration at which the effect is half-maximal. On to `CC[C@H](C)[C@H](NC(=O)[C@H](C)NC(=O)[C@H](CC(C)C)NC(=O)[C@H](CCC(N)=O)NC(=O)[C@H](CCCN=C(N)N)NC(=O)CNC(=O)[C@@H](NC(=O)[C@H](CCC(N)=O)NC(=O)CN)C(C)C)C(=O)N[C@H](C(=O)NCC(=O)N[C@@H](CC(=O)O)C(=O)N[C@@H](CC(=O)O)C(=O)N[C@@H](Cc1ccccc1)C(=O)N[C@@H](CC(N)=O)C(=O)N[C@@H](CCCN=C(N)N)C(=O)O)[C@@H](C)CC`, for which the concentration for a half-maximal effect (EC50) in assay [2] turned out to be 0.054 µM.

Turning to `CC[C@H](C)[C@H](NC(=O)[C@H](C)NC(=O)[C@H](CC(C)C)NC(=O)[C@H](CCC(N)=O)NC(=O)[C@H](CCCNC(=N)N)NC(=O)CNC(=O)[C@@H](NC(=O)[C@H](CCC(N)=O)NC(=O)CN)C(C)C)C(=O)N[C@H](C(=O)NCC(=O)N[C@@H](CC(=O)O)C(=O)N[C@@H](CC(=O)O)C(=O)N[C@@H](Cc1ccc(-c2ccccc2)cc1)C(=O)N[C@@H](CC(N)=O)C(=O)N[C@@H](CCCNC(=N)N)C(=O)O)[C@@H](C)CC`, in assay [2], the EC50 came to 0.267 µM.

`CC[C@H](C)[C@H](NC(=O)[C@H](C)NC(=O)[C@H](C)NC(=O)[C@H](CCC(N)=O)NC(=O)[C@H](CCCN=C(N)N)NC(=O)CNC(=O)[C@@H](NC(=O)[C@H](CCC(N)=O)NC(=O)CN)C(C)C)C(=O)N[C@H](C(=O)NCC(=O)N[C@@H](CC(=O)O)C(=O)N[C@@H](CC(=O)O)C(=O)N[C@H](C(=O)N[C@@H](CC(N)=O)C(=O)N[C@@H](CCCN=C(N)N)C(=O)O)[C@@H](C)CC)[C@@H](C)CC`: the EC50 in assay [2] was 270 µM.

With `CC[C@H](C)[C@H](NC(=O)[C@H](C)NC(=O)[C@H](CC(C)C)NC(=O)[C@H](CCC(N)=O)NC(=O)[C@H](CCCNC(=N)N)NC(=O)CNC(=O)[C@H](C)NC(=O)[C@H](CCC(N)=O)NC(=O)CN)C(=O)N[C@H](C(=O)NCC(=O)N[C@@H](CC(=O)O)C(=O)N[C@@H](CC(=O)O)C(=O)N[C@H](C(=O)N[C@@H](CC(N)=O)C(=O)N[C@@H](CCCNC(=N)N)C(=O)O)[C@@H](C)CC)[C@@H](C)CC`, the EC50 in assay [2] was determined as 15 µM.

In the case of `CC[C@H](C)[C@H](NC(=O)[C@H](C)NC(=O)[C@H](CC(C)C)NC(=O)[C@H](CCC(N)=O)NC(=O)[C@H](CCCN=C(N)N)NC(=O)CNC(=O)[C@@H](NC(=O)[C@H](CCC(N)=O)NC(=O)CN)C(C)C)C(=O)N[C@@H](Cc1cccc(Cl)c1)C(=O)NCC(=O)N[C@@H](CC(=O)O)C(=O)N[C@@H](CC(=O)O)C(=O)N[C@H](C(=O)N[C@@H](CC(N)=O)C(=O)N[C@@H](CCCN=C(N)N)C(=O)O)[C@@H](C)CC`, in assay [2], the EC50 was determined as 0.2 µM.

Turning to `CC[C@H](C)[C@H](NC(=O)[C@H](C)NC(=O)[C@H](CCc1ccccc1)NC(=O)[C@H](CCC(N)=O)NC(=O)[C@H](CCCNC(=N)N)NC(=O)CNC(=O)[C@@H](NC(=O)[C@H](CCC(N)=O)NC(=O)CN)C(C)C)C(=O)N[C@H](C(=O)NCC(=O)N[C@@H](CC(=O)O)C(=O)N[C@@H](CC(=O)O)C(=O)N[C@H](C(=O)N[C@@H](CC(N)=O)C(=O)N[C@@H](CCCNC(=N)N)C(=O)O)[C@@H](C)CC)[C@@H](C)CC`, the EC50 in assay [2] was found to be 0.225 µM.

Take `CC[C@H](C)[C@H](NC(=O)[C@H](C)NC(=O)[C@H](Cc1ccc2ccccc2c1)NC(=O)[C@H](CCC(N)=O)NC(=O)[C@H](CCCNC(=N)N)NC(=O)CNC(=O)[C@@H](NC(=O)[C@H](CCC(N)=O)NC(=O)CN)C(C)C)C(=O)N[C@H](C(=O)NCC(=O)N[C@@H](CC(=O)O)C(=O)N[C@@H](CC(=O)O)C(=O)N[C@@H](Cc1ccccc1)C(=O)N[C@@H](CC(N)=O)C(=O)N[C@@H](CCCNC(=N)N)C(=O)O)[C@@H](C)CC` (H-GQVGRQ[2Nal]AIIGDDFNR-OH): the EC50 in assay [2] is 0.054 µM.

For the compound `CC[C@H](C)[C@H](NC(=O)[C@H](C)NC(=O)[C@H](Cc1ccccc1)NC(=O)[C@H](CCC(N)=O)NC(=O)[C@H](CCCN=C(N)N)NC(=O)CNC(=O)[C@@H](NC(=O)[C@H](CCC(N)=O)NC(=O)CN)C(C)C)C(=O)N[C@H](C(=O)NCC(=O)N[C@@H](CC(=O)O)C(=O)N[C@@H](CC(=O)O)C(=O)N[C@H](C(=O)N[C@@H](CC(N)=O)C(=O)N[C@@H](CCCN=C(N)N)C(=O)O)[C@@H](C)CC)[C@@H](C)CC`, in assay [2], the EC50 is 0.405 µM.

Take `CC[C@H](C)[C@H](NC(=O)[C@H](C)NC(=O)[C@H](CC(C)C)NC(=O)[C@H](CCC(N)=O)NC(=O)[C@H](CCCN=C(N)N)NC(=O)CNC(=O)[C@@H](NC(=O)[C@H](CCC(N)=O)NC(=O)CN)C(C)C)C(=O)N[C@H](C(=O)NCC(=O)N[C@@H](CC(=O)O)C(=O)N[C@@H](CC(=O)O)C(=O)N[C@@H](Cc1cccc2ccccc12)C(=O)N[C@@H](CC(N)=O)C(=O)N[C@@H](CCCN=C(N)N)C(=O)O)[C@@H](C)CC`: the 50% effective concentration (EC50) in assay [2] amounted to 0.077 µM.

Turning to `CC[C@H](C)[C@H](NC(=O)[C@H](C)NC(=O)[C@H](CC(C)C)NC(=O)[C@H](CCC(N)=O)NC(=O)[C@H](CCCNC(=N)N)NC(=O)CNC(=O)[C@@H](NC(=O)[C@H](CCC(N)=O)NC(=O)CN)C(C)C)C(=O)N[C@@H](Cc1ccccc1)C(=O)NCC(=O)N[C@@H](CC(=O)O)C(=O)N[C@@H](CC(=O)O)C(=O)N[C@H](C(=O)N[C@@H](CC(N)=O)C(=O)N[C@@H](CCCNC(=N)N)C(=O)O)[C@@H](C)CC`, the half-maximal effective concentration (EC50) in assay [2] worked out at 2.14 µM.

As for `CC[C@H](C)[C@H](NC(=O)[C@H](C)NC(=O)[C@H](CC1CCCCC1)NC(=O)[C@H](CCC(N)=O)NC(=O)[C@H](CCCNC(=N)N)NC(=O)CNC(=O)[C@@H](NC(=O)[C@H](CCC(N)=O)NC(=O)CN)C(C)C)C(=O)N[C@H](C(=O)NCC(=O)N[C@@H](CC(=O)O)C(=O)N[C@@H](CC(=O)O)C(=O)N[C@H](C(=O)N[C@@H](CC(N)=O)C(=O)N[C@@H](CCCNC(=N)N)C(=O)O)[C@@H](C)CC)[C@@H](C)CC`, the EC50 in assay [2] is 0.219 µM.

`CC[C@H](C)[C@H](NC(=O)[C@H](C)NC(=O)[C@H](CC(C)C)NC(=O)[C@H](CCC(N)=O)NC(=O)[C@H](CCCN=C(N)N)NC(=O)CNC(=O)[C@@H](NC(=O)[C@H](CCC(N)=O)NC(=O)CN)C(C)C)C(=O)N[C@H](C(=O)NCC(=O)N[C@@H](CC(=O)O)C(=O)N[C@@H](CC(=O)O)C(=O)N[C@@H](Cc1ccc2ccccc2c1)C(=O)N[C@@H](CC(N)=O)C(=O)N[C@@H](CCCN=C(N)N)C(=O)O)[C@@H](C)CC`: the EC50 in assay [2] stood at 0.125 µM.

For `CC[C@H](C)[C@H](NC(=O)[C@H](C)NC(=O)[C@H](CC(C)C)NC(=O)[C@H](CCC(N)=O)NC(=O)[C@H](CCCN=C(N)N)NC(=O)CNC(=O)[C@@H](NC(=O)[C@H](CCC(N)=O)NC(=O)CN)C(C)C)C(=O)N[C@H](C(=O)NCC(=O)N[C@@H](CC(=O)O)C(=O)N[C@@H](CC(=O)O)C(=O)N[C@@H](Cc1ccc(O)cc1)C(=O)N[C@@H](CC(N)=O)C(=O)N[C@@H](CCCN=C(N)N)C(=O)O)[C@@H](C)CC`, the EC50 in assay [2] worked out at 0.159 µM.

For `CC[C@H](C)[C@H](NC(=O)[C@H](C)NC(=O)[C@H](CC(C)C)NC(=O)[C@H](CCC(N)=O)NC(=O)[C@H](CCCNC(=N)N)NC(=O)CNC(=O)[C@@H](NC(=O)[C@H](CCC(N)=O)NC(=O)CN)C(C)C)C(=O)N[C@H](C(=O)NCC(=O)N[C@@H](CC(=O)O)C(=O)N[C@@H](CC(=O)O)C(=O)N[C@@H](Cc1cnc[nH]1)C(=O)N[C@@H](CC(N)=O)C(=O)N[C@@H](CCCNC(=N)N)C(=O)O)[C@@H](C)CC`, the concentration giving a half-maximal response (EC50) in assay [2] amounted to 5.12 µM.

Turning to `CCCC[C@H](NC(=O)[C@@H](NC(=O)[C@H](C)NC(=O)[C@H](CC(C)C)NC(=O)[C@H](CCC(N)=O)NC(=O)[C@H](CCCN=C(N)N)NC(=O)CNC(=O)[C@@H](NC(=O)[C@H](CCC(N)=O)NC(=O)CN)C(C)C)[C@@H](C)CC)C(=O)NCC(=O)N[C@@H](CC(=O)O)C(=O)N[C@@H](CC(=O)O)C(=O)N[C@H](C(=O)N[C@@H](CC(N)=O)C(=O)N[C@@H](CCCN=C(N)N)C(=O)O)[C@@H](C)CC`, the EC50 in assay [2] was found to be 0.655 µM.

Turning to `CC[C@H](C)[C@H](NC(=O)[C@H](C)NC(=O)[C@H](CC(C)C)NC(=O)[C@H](CCC(N)=O)NC(=O)[C@H](CCCNC(=N)N)NC(=O)CNC(=O)[C@@H](NC(=O)[C@H](CCC(N)=O)NC(=O)CN)C(C)C)C(=O)N[C@H](C(=O)NCC(=O)N[C@@H](CC(=O)O)C(=O)N[C@@H](CC(=O)O)C(=O)N[C@@H](Cc1cccc(Cl)c1)C(=O)N[C@@H](CC(N)=O)C(=O)N[C@@H](CCCNC(=N)N)C(=O)O)[C@@H](C)CC`, the half-maximal effective concentration (EC50) in assay [2] worked out at 0.056 µM.

Consider `CC[C@H](C)[C@H](NC(=O)[C@H](C)NC(=O)[C@H](Cc1cccc(Cl)c1)NC(=O)[C@H](CCC(N)=O)NC(=O)[C@H](CCCN=C(N)N)NC(=O)CNC(=O)[C@@H](NC(=O)[C@H](CCC(N)=O)NC(=O)CN)C(C)C)C(=O)N[C@H](C(=O)NCC(=O)N[C@@H](CC(=O)O)C(=O)N[C@@H](CC(=O)O)C(=O)N[C@H](C(=O)N[C@@H](CC(N)=O)C(=O)N[C@@H](CCCN=C(N)N)C(=O)O)[C@@H](C)CC)[C@@H](C)CC`, for which, in assay [2], the EC50 worked out at 0.359 µM.
